Measured values as given in US20220047589A1, “PDE9 INHIBITORS FOR TREATING THALASSEMIA” (Imara Inc., priority 2019, published 2022).
Entries after “also recorded” stand apart in the source; their conditions may differ.

Assays:
Hbb^th1 mice [1] = assay: Erythroblast differentiation (RBC maturation) in spleen cells of treated Hbb^th1 mice by flow cytometry; type: in vivo, mouse; conditions: 30 or 60 mg/kg once daily by oral gavage
Procedure: (§1) This model was used to evaluate the effect of Compound 1 to treat thalassemia.
(§2) Hbb^th1 mice were given Compound 1 dissolved in 10:90 DMSO:corn oil once daily, by oral gavage, at either a high dose (60 mg/kg) or a low dose (30 mg/kg). A normal (C57BL/6) mouse was included as a control in the study to establish baselines along with a Hbb^th1 vehicle mouse not given Compound 1. Animals were observed once daily for morbidity and mortality. Mice were not allowed to recover from anesthesia and were killed by cervical dislocation while still anesthetized. Necropsy was limited to removal and weighing of the spleen for further analysis.
RBC maturation is a key mechanistic component in reducing pathology of thalassemia. Therefore, immature RBC (Ery.B: late basophilic and polychromatic) percentage, mature RBC (Ery.C: ortochromatic and reticulocytes) percentage, and maturation index were also measured. […] Cells were further analyzed by flow cytometry (Gallios, Beckman) using FlowJo software v.10.1 (FlowJo, LLC). Results were expressed as the percentage of Ery.B (Live-Dead^neg, Ter-119^pos, CD71^pos, FSC^low) or Ery.C (Live-Dead^neg, Ter-119^pos, CD71^neg, FSC^low) populations. Maturation index was calculated as Ery.B/Ery.C ratio.

Hbb^th1 mice [2] = assay: In vivo study in Hbb^th1 thalassemia mice: blood Hb and RBC levels; design: species or system mouse
Procedure: as §1, §2
Blood was collected on day 30, from the retroorbital sinus of all mice, while mice were under isoflurane anesthesia, using heparin capillaries and EDTA-coated tubes. Parameters measured were: Hb levels and RBC levels.

[3] = Effect of food on adverse event profile on once-daily administration to patients; type: in vivo; conditions: once a day with food
Procedure: In some embodiments, Compound 1, or a pharmaceutically acceptable salt, solvate, or polymorph thereof is administered to a patient, wherein Compound 1, or a pharmaceutically acceptable salt, solvate, or polymorph thereof is administered once a day with food. […] The incidence and severity of the side effects, such as nausea, emesis and headache, can be reduced when Compound 1, or a pharmaceutically acceptable salt, solvate, or polymorph thereof is taken with food.

With C[C@@H]1CN(Cc2ncccn2)C[C@H]1c1cn2c(C3CCOCC3)ncc2c(=O)[nH]1 [Compound 1, 6-[(3S,4S)-4-methyl-1-(pyrimidin-2-ylmethyl)pyrrolidin-3-yl]-3-tetrahydropyran-4-yl-7H-imidazo[1,5-a]pyrazin-8-one] the “immature RBC (Ery.B) percentage” value (Hbb^th1 mice [1]; FIG. 2A) was “reduces immature RBC cell percentages; also recorded: reduces immature RBC levels”, the “mature RBC (Ery.C) percentage” value (Hbb^th1 mice [1]; FIG. 2B) was “increases mature RBC cell percentages; also recorded: increases mature RBC levels” and the “Hb levels (total Hb amount)” value (Hbb^th1 mice [2]; 30 or 60 mg/kg once daily by oral gavage, blood on day 30, FIG. 1A) was “increase Hb levels; also recorded: increases the total Hb amount”. The “RBC levels (RBC amount)” value (Hbb^th1 mice [2]; 30 or 60 mg/kg once daily by oral gavage, blood on day 30, FIG. 1B) was “increased RBC levels; also recorded: increases”, the “increase of total Hb vs. control groups” value (Hbb^th1 mice [2]; high dose (60 mg/kg), once daily by oral gavage, blood collected on day 30) was 1.3 g/dL and the “adverse event profile (nausea, emesis, headache) when taken with food” value [3] was “food reduce the adverse event profile dramatically”.
